Data: patent US12545677B2, “Compounds useful as factor XIa inhibitors” (JANSSEN PHARMACEUTICA NV, priority 2020, dated 2026)

Tests used:
[1] = tested on: Salmonella typhimurium strains TA98 and TA mixed; experiment: AMES II assay; format: cell-based; details: absence and presence of S9
Experimental: Biological Example 7: AMES II Assay
The aim of this study was to evaluate compound(s) and/or their metabolite(s) for their ability to induce reverse mutations in a gene of histidine-requiring Salmonella typhimurium strains to produce histidine-independent strains of these bacteria, in the absence and in the presence of a mammalian metabolic activation system.
Mutagenic potential was assessed by using an in-house adaptation of the Ames II Mutagenicity Assay kit from Xenometrics (Boulder, CA, USA). The strains TA98 and TA mixed (a combination of 6 strains) used in this study were able to detect frame-shift mutations and base pair substitutions respectively. […]
In the in vitro gene reverse mutation test, effects were determined by exposing a mutant strain of Salmonella typhimurium to various concentrations of the test compound. […] These colonies (revertants) are readily detectable due to their ability to grow on a histidine deficient medium. […] The revertant bacteria are detected by their ability to grow in the absence of the amino acid required by the parent test strain. […] The strains containing the plasmid, pKM101, are reverted by a number of mutagens that are detected weakly or not at all with the non plasmid bearing parent strains. […]

[2] = tested on: TK6 human lymphoblastoid cell line; experiment: In vitro micronucleus assay; format: cell-based; details: TK6 cells, 3 h +S9 and continuous -S9; score of 1 = clearly negative
Experimental: Biological Example 8: In Vitro Micronucleus Assay
The in vitro micronucleus test (MNT) is a genotoxicity test for the detection of micronuclei (MN) in the cytoplasm of interphase cells. Micronuclei may originate from acentric chromosome fragments (i.e., lacking a centromere) or whole chromosomes that are unable to migrate to the poles during the anaphase stage of cell division. Compounds and/or their metabolites are evaluated for their ability to induce chromosome/genome aberrations in a TK6 human lymphoblastoid cell line, in the absence and in the presence of a mammalian metabolic activation system. Human TK6 cells are often used in the in vitro micronucleus test and it is noteworthy that these cells have a wild-type p53 status, a feature that some groups speculate may help to reduce the frequency of false positive results. The assessment is done by means of manual and/or semi-automated microscopical analysis.
The in vitro micronucleus test using TK6 cells is an accepted regulatory genotoxicity assay. […]
Assay principle: Cell cultures were exposed to the test compound both with and without an exogenous source of metabolic activation. […] Harvested and stained interphase cells were analyzed for the presence of micronuclei. […]

O=C1C=C(c2c(-n3cnnn3)ccc(Cl)c2F)C[C@H]2CC[C@@H](c3ncc(-c4ccnc(CO)c4F)[nH]3)N12 [Compound of formula (I-A), (3S,8aR)-7-(3-Chloro-2-fluoro-6-(1H-tetrazol-1-yl)phenyl)-3-(5-(3-fluoro-2-(hydroxymethyl)pyridin-4-yl)-1H-imidazol-2-yl)-2,3,8,8a-tetrahydroindolizin-5(1H)-one]
AMES II assay result [1]: negative
in vitro MNT assay result [2]: negative
